Results from patent publication US7498292B2, “Combinatorial libraries of autoinducer analogs, autoinducer agonists and antagonists, and methods of use thereof” (The Research Foundation of State University of New York, priority 2002, dated 2009).
“Also recorded” adds a separate entry of the source.

Columns and labels:
[1] = molecular target: T1, LasR (Pseudomonas aeruginosa, UniProt P25084); assay: lasI-gfp reporter agonist assay, PAO-JP2 (plasI-LVAgfp); assay type: cell-based, P. aeruginosa; conditions: PAO-JP2 (plasI-LVAgfp), compounds made in solution phase, increasing concentrations (1, 100, 400 μM)
T1 construct: endogenous in cells; host or cells: P. aeruginosa PAO-JP2 (lasI, rhlI) harboring plasI-LVAgfp
T1 sequence (P25084 whole entry): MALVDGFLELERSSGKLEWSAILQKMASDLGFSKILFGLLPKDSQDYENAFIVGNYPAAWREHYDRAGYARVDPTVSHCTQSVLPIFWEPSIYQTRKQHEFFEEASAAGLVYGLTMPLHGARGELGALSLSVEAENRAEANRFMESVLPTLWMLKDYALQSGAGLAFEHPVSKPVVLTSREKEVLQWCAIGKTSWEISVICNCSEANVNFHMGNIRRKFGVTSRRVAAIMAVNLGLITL
Excerpt: Since this strain lacks the ability to produce natural AIs due to disruption of both AI synthase genes, activation of LasR relies on the addition of exogenous AI1. Expression of gfp (encoding green fluorescent protein) is under control of the LasR-AI1 inducible lasI promoter, allowing rapid screening for LasR agonists by measuring the level of GFP expression in their presence.
(§1) P. aeruginosa strain PAO-JP2 (lasI, rhlI) (Rahme et al., Science 268:1899-1902 (1995), which is hereby incorporated by reference in its entirety) harboring plasI-LVAgfp (Pearson et al., Proc. Natl Acad. Sci. USA 91:197-201 (1994), which is hereby incorporated by reference in its entirety) was grown at 37° C. in LB with 300 μg/ml carbenicillin. For agonist assays, an overnight culture was diluted to an OD600 of 0.1 and transferred to wells of a 96-well plate on which test compounds had previously been added and dried. The final concentration of each analog tested was roughly 400 μM, although this is an overestimate due to purity issues. Cells were then incubated for 6 hours at 37° C. with vigorous shaking. GFP expression was detected with a Molecular Imager (BioRad) (488 nm excitation and 695 nm bandpass filter) and quantified with ImageQuant software. The OD600 of cultures was determined to normalize GFP expression to cell density.
(§2) Reporter strains were grown overnight in LB plus 300 μg/ml carbenicillin at 37° C. and diluted to an OD600 of 0.1. Following an incubation of 1 hour, 200 μl of cell culture was added to individual wells of a 96 well plate containing appropriate amount of test compound(s). Plates were incubated for 6 hours and then scanned for fluorescence emission with a Molecular Imager (488 nm excitation and 695 nm bandpass filter). Fluorescence was quantified with ImageQuant software.

[2] = molecular target: T1, LasR; assay: lasI-gfp reporter antagonist (competition against AI1) assay, PAO-JP2 (plasI-LVAgfp); assay type: cell-based, P. aeruginosa; conditions: 100-fold excess concentration over AI1 (1 μM AI1)
Method: as §1
The methods were the same as described in Example 2 (GFP Reporter Assay), except that 1 μM AI1 was added to each well in combination with the library compound. The fluorescence/OD600 of each compound competing against AI1 was reported relative to the fluorescence/OD600 of the positive control of AI1 alone, which was set to 1. When strain PAO-JP2 (prhlI-LVAgfp) was used, the positive control was 1 μM AI1 and 10 μM AI2. Eight compounds that inhibited reporter gene expression by greater than 50% were identified (see, e.g., FIG. 6).
as §2

[3] = system: RhlR; assay: rhlI-gfp reporter antagonist assay, PAO-JP2 (prhlI-LVAgfp); assay type: cell-based, P. aeruginosa; conditions: 50 μM compound, competing against 1 μM AI1 and 10 μM AI2
Method: Each compound in the library was tested for antagonist activity using the same reporter strain, PAO-JP2 (plasI-LVAgfp) (de Kievit et al., Appl. Environ. Microbiol. 67:865-1873 (2001), which is hereby incorporated by reference in its entirety) to find compounds that could compete against AI1 and reduce GFP expression. The methods were the same as described in Example 2 (GFP Reporter Assay), except that 1 μM AI1 was added to each well in combination with the library compound. The fluorescence/OD600 of each compound competing against AI1 was reported relative to the fluorescence/OD600 of the positive control of AI1 alone, which was set to 1. When strain PAO-JP2 (prhlI-LVAgfp) was used, the positive control was 1 μM AI1 and 10 μM AI2.
3- oxo-C12-D10 was synthesized in solution phase, where the natural side chain was coupled with D10 and purified by chromatography. To determine if the same structural motif can be applied to inhibition of the RhlR-AI2 interaction, C4-D10 was also synthesized. Assays were performed with both the lasI-gfp reporter PAO-JP2 (plasI-LVAgfp) and an RhlR-AI2 controlled rhlI-gfp reporter, PAO-JP2 (prhlI-LVAgfp) (FIGS. 10A-C) (de Kievit et al., Appl. Environ. Microbiol. 67:865-1873 (2001), which is hereby incorporated by reference in its entirety).
as §2
Next the ability of 2 and 3 to inhibit the rhlI-gfp reporter strain PAO-JP2 (prhlI-LVAgfp) was tested, since this expression is also AI1-dependent.

[4] = system: pyocyanin; assay: pyocyanin assay, strain PAO-JP2; assay type: cell-based, P. aeruginosa PAO-JP2; conditions: PAO-JP2, 25 μM each of AI1 and AI2, 18 hours
Method: (§3) For the pyocyanin assay, cells were grown overnight in LB then washed in fresh media and diluted to an OD600 of 0.05. This culture was grown for 3-4 hours to mid-log phase (OD600 of 0.3-0.5), then diluted to an OD600 of 0.05, and aliquoted to test tubes containing an appropriate amount of test compound(s). Following 18 hours of growth, pyocyanin was extracted from filtered culture supernatants and quantified using standard methods (Essar et al., J. Bacteriol. 172:884-900 (1990), which is hereby incorporated by reference in its entirety).

[5] = system: pyocyanin; assay: pyocyanin assay, wild type strain PAO1; assay type: cell-based, P. aeruginosa PAO1; conditions: wild type PAO1, no AIs added
Method: as §3

[6] = system: PAO1 (pTdK-GFP) biofilm; assay: static biofilm assay, PAO1 (pTdK-GFP); assay type: cell-based, P. aeruginosa
Method: Compound 3 was tested for its effect on biofilm development in a 24-hour assay that looks at the early stages of biofilm formation. […] Cultures were grown at 37° C. with shaking for 30 minutes, and then allowed to sit at 37° C. for an additional 23.5 hours. Coverslips were then rinsed and placed on slides for visualization using an MRC1024 Laser Scanning Microscope (BioRad) with a Nikon Fluor-60X oil emersion objective lens (NA=1.4), 488 nm Argon Laser and OG515 filter.
The same assay was run with strain PAO-1 (pTdK-GFP), and no exogenous autoinducers were added. […] The above results provide additional evidence that compound 3 interferes with QS signaling and reduces the production of important virulence factors.

[7] = system: lac promoter; assay: GFP expression from lac promoter, PAO-JP2 (pTdK-GFP) (specificity control); assay type: cell-based, P. aeruginosa; conditions: lasI promoter replaced with a lac promoter

CCCCCCCCCC(=O)CC(=O)NC1CCCCC1=O (racemic) [Compound 3, N-(2-oxocyclohexyl)-3-oxododecanamide]
agonist activity (induction of lasI-gfp reporter) [1]: nearly unable to induce the reporter; also recorded: no agonist activity
inhibition of GFP expression (lasI-gfp) [2]: 35%
inhibition of GFP expression (rhlI-gfp) [3]: greater than 60%
effect on pyocyanin production [4]: nearly complete inhibition
effect on pyocyanin production [5]: very similar inhibitory effect
effect on biofilm morphology ([6]; wild type PAO1): noticeable difference in biofilm morphology
effect on biofilm formation ([6]; wild type PAO1, no exogenous autoinducers): less obvious
inhibition of GFP expression from lac promoter [7]: inability to inhibit GFP expression
